{"source": "patent US4749710A", "about": "“Immunosuppressive agents” (priority 1985, dated 1988)", "key": {"[1]": {"test_system": "human cytotoxic T-lymphocyte responses", "test": "Inhibition of human CTL responses (mixed leukocyte-tumor cultures, HT-144 melanoma, ^51 Cr release)", "format": "cell-based", "conditions": "for inhibition at 10 µM / inhibition at 1 µM / inhibition at 0.1 µM: Homo sapiens, T-lymphocyte, read-out: Inhibition of CTL activity (%); for inhibition at 10 µM / inhibition at 1 µM / inhibition at 0.1 µM / CTL activity (% specific ^51 Cr release): 0.1% ethanol", "method_in_brief": "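Effector CTLs came from 6-day mixed leukocyte–tumor cultures of donor PBMC with irradiated stimulator cells plus 1×10^-5 M hydrocortisone. Effectors were added to adhered ^51Cr-labelled target cells overnight at 37 °C; specific ^51Cr release gave percent inhibition, mean±SEM of triplicates.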"}, "[2]": {"test_system": "murine cytotoxic T-lymphocyte responses", "test": "cells", "format": "cell-based", "conditions": "for CTL activity (% specific ^51 Cr release): 90:1 effector to target", "excerpt": "Immunosuppressive Activity of Vitamin D compounds on cytotoxic T lymphocyte Responses-General Test Description\nCytotoxic thymus-derived lymphocytes (CTL) constitute an important aspect of immune function and, as a result, play a key role in the rejection of grafted cells, tissues and organs. It is, therefore, essential to suppress CTL generation in a clinical situation in which CTL function is antithetical to the desired outcome as, for example, in transplantation. Cytotoxic T-lymphocytes have been studied for several years by many investigators and methods to evaluate CTL responses in vitro are well established.\nAs described below, CTL responses as affected by Vitamin D derivatives, were studied in vitro using cells from lab animals and human volunteers. Cytotoxic T-lymphocytes were generated from responder lymphoid cells in tissue culture medium during an incubation period of 6 days by exposure to foreign stimulator cells, i.e. from a genetically disparate source. A portion of the resultant effector cells were CTL capable of killing fresh cells related to the stimulator cells employed in the 6 day culture. To detect killing of cells by CTL, fresh target cells were incubated in excess ^51 chromium (as sodium chromate) until they were extensively labelled. Since target cells will retain the internalized radioisotope as long as they are viable but release the label when they are killed, CTL activity was assessed by quantitating the chromium released from target cells after a 4 or 18 hour incubation with CTL. Immunosuppression produced by Vitamin D derivatives was gauged as the ability to inhibit CTL responses during the initial incubation period relative to control cultures to which no Vitamin D derivative was added.\nFemale BALB/c By and C57BL/6 mice were obtained from Jackson Laboratories and were used between 8 and 10 weeks of age. Mice were given food and water ad libitum and were kept in a 12 hour light and 12 hour dark cycle.\nFor murine cultures, minimal essential medium with Hank's salts was supplemented to 1 millimolar with sodium pyruvate, to 0.1 millimolar with nonessential amino acids, to 2 millimolar with 1-glutamine, to 10% (v/v) with heat-inactivated fetal bovine serum, to 50 micrograms per ml with gentamicin, and to 1000 milligrams per liter with sodium bicarbonate and was used as tissue culture medium.\nStock solutions of Vitamin D derivatives were made in argon-saturated ethanol at a final concentration of 1×10^-2 molar, were covered with argon before sealing and were stored at -20° C. in the dark. Reduced lighting conditions were always employed when working with compounds. Compounds were diluted in tissue culture medium to 1×10^-4 molar and all subsequent dilutions were done in tissue culture medium containing 1% v/v ethanol. The final dilution into culture vessels was 1:10 thus keeping the vehicle concentration constant at 0.1% while varying the concentration of compound as tabulated in the results. For purposes of control, mixed leukocyte cultures were incubated in medium only (medium control) or in medium containing a final concentration of 0.1% ethanol (vehicle control).\nMurine cytotoxic T-lymphocytes were generated in mixed leukocyte cultures by known methods. Specifically, single cell suspensions were prepared from spleens by gentle disruption in balanced salt solution (Hanks' balanced salt solution supplemented to 10%, v/v, with fetal bovine serum). After sedimentation on ice to remove particulate debris, cell suspensions were centrifuged at 400xg and were resuspended in fresh balanced salt solution. Cells to be used as stimulator cells were precluded from proliferating or generating cytotoxic T-lymphocytes by exposure to 1000 rads of gamma irradiation using a ^137 cesium source. […]"}, "[3]": {"conditions": "Test 1, donor I, 1 × 10^-5 molar, effector to target 6:1"}, "[4]": {"conditions": "Test 1, donor I, 1 × 10^-6 molar, effector to target 6:1"}, "[5]": {"conditions": "Test 2, donor II, 1 × 10^-6 molar, effector to target 6:1"}, "[6]": {"conditions": "Test 2, donor II, 1 × 10^-7 molar, effector to target 6:1"}, "[7]": {"conditions": "Test 1, donor I, 1 × 10^-7 molar, effector to target 6:1"}, "[8]": {"conditions": "Test 2, donor III, 1 × 10^-6 molar, effector to target 32:1"}, "[9]": {"conditions": "Test 2, donor III, 1 × 10^-7 molar, effector to target 32:1"}, "[10]": {"conditions": "Test 3, donor IV, 1 × 10^-6 molar, effector to target 24:1"}, "[11]": {"conditions": "Test 3, donor IV, 1 × 10^-7 molar, effector to target 24:1"}}, "note": "Like-named read-outs stand apart in the source and are kept apart here.", "data": [{"molecule": "C=C1/C(=C\\C=C2/CCC[C@]3(C)[C@@H]([C@H](C)C[C@H](O)CC(C)(C)O)CC[C@@H]23)C[C@@H](O)C[C@@H]1O", "note": "[1α,23S,25-(OH)3 --D3, 1α,23S,25-Trihydroxycholecalciferol]", "values": [{"measurement": "inhibition at 10 µM", "setting": "[1]; [3]", "result": 95, "unit": "%"}, {"measurement": "inhibition at 1 µM", "setting": "[1]; [4]", "result": 72, "unit": "%"}, {"measurement": "inhibition at 1 µM", "setting": "[1]; [5]", "result": 62, "unit": "%"}, {"measurement": "inhibition at 0.1 µM", "setting": "[1]; [6]", "result": 73, "unit": "%"}, {"measurement": "suppression of generation of human cytotoxic T-lymphocytes (in words)", "setting": "[1]; Table IV", "result": "suppressed the generation of human cytotoxic T-lymphocytes"}, {"measurement": "CTL activity (% specific ^51 Cr release)", "setting": "[1]; [3]", "result": "2 ± 3", "unit": "% specific ^51 Cr release"}, {"measurement": "CTL activity (% specific ^51 Cr release)", "setting": "[1]; [4]", "result": "12 ± 3", "unit": "% specific ^51 Cr release"}, {"measurement": "CTL activity (% specific ^51 Cr release)", "setting": "[1]; [5]", "result": "14 ± 7", "unit": "% specific ^51 Cr release"}, {"measurement": "CTL activity (% specific ^51 Cr release)", "setting": "[1]; [6]", "result": "10 ± 2", "unit": "% specific ^51 Cr release"}, {"measurement": "inhibition at 10 µM", "setting": "[2]; Mus musculus, T-lymphocyte, Table I, 1 × 10^-5 molar, vs vehicle control, read-out: Inhibition of CTL activity (%)", "result": 77, "unit": "%"}, {"measurement": "inhibition at 1 µM", "setting": "[2]; Mus musculus, T-lymphocyte, Table I, 1 × 10^-6 molar, vs vehicle control, read-out: Inhibition of CTL activity (%)", "result": 59, "unit": "%"}, {"measurement": "inhibition at 0.1 µM", "setting": "[2]; Mus musculus, T-lymphocyte, Table I, 1 × 10^-7 molar, vs vehicle control, read-out: Inhibition of CTL activity (%)", "result": 43, "unit": "%"}, {"measurement": "inhibition at 0.01 µM", "setting": "[2]; Mus musculus, T-lymphocyte, Table I, 1 × 10^-8 molar, vs vehicle control, read-out: Inhibition of CTL activity (%)", "result": 18, "unit": "%"}, {"measurement": "inhibition at 0.001 µM", "setting": "[2]; Mus musculus, T-lymphocyte, Table I, 1 × 10^-9 molar, vs vehicle control, read-out: Inhibition of CTL activity (%)", "result": 0, "unit": "%"}, {"measurement": "CTL activity (% specific ^51 Cr release)", "setting": "[2]; Table I, 1 × 10^-5 molar", "result": 10, "unit": "% specific ^51 Cr release"}, {"measurement": "CTL activity (% specific ^51 Cr release)", "setting": "[2]; Table I, 1 × 10^-6 molar", "result": 18, "unit": "% specific ^51 Cr release"}, {"measurement": "CTL activity (% specific ^51 Cr release)", "setting": "[2]; Table I, 1 × 10^-7 molar", "result": 25, "unit": "% specific ^51 Cr release"}, {"measurement": "CTL activity (% specific ^51 Cr release)", "setting": "[2]; Table I, 1 × 10^-8 molar", "result": 36, "unit": "% specific ^51 Cr release"}, {"measurement": "CTL activity (% specific ^51 Cr release)", "setting": "[2]; Table I, 1 × 10^-9 molar", "result": 45, "unit": "% specific ^51 Cr release"}, {"measurement": "suppression of murine cytotoxic T-lymphocyte responses (in words)", "setting": "[2]; in vitro", "result": "suppress murine cytotoxic T-lymphocyte responses"}]}, {"molecule": "C=C1/C(=C\\C=C2/CCC[C@]3(C)[C@@H]([C@H](C)/C=C/[C@H](C)[C@](C)(O)CO)CC[C@@H]23)C[C@@H](O)C[C@@H]1O", "note": "[1α,25S,26-(OH)3 --D2, 1α,25S,26-Trihydroxyergocalciferol]", "values": [{"measurement": "inhibition at 1 µM", "setting": "[1]; [4]", "result": 54, "unit": "%"}, {"measurement": "inhibition at 0.1 µM", "setting": "[1]; [7]", "result": 76, "unit": "%"}, {"measurement": "inhibition at 1 µM", "setting": "[1]; [8]", "result": 100, "unit": "%"}, {"measurement": "inhibition at 0.1 µM", "setting": "[1]; [9]", "result": 87, "unit": "%"}, {"measurement": "inhibition at 1 µM", "setting": "[1]; [10]", "result": 82, "unit": "%"}, {"measurement": "inhibition at 0.1 µM", "setting": "[1]; [11]", "result": 40, "unit": "%"}, {"measurement": "CTL activity (% specific ^51 Cr release)", "setting": "[1]; [4]", "result": "17 ± 4", "unit": "% specific ^51 Cr release"}, {"measurement": "CTL activity (% specific ^51 Cr release)", "setting": "[1]; [7]", "result": "9 ± 2", "unit": "% specific ^51 Cr release"}, {"measurement": "CTL activity (% specific ^51 Cr release)", "setting": "[1]; [8]", "result": "-4 ± 2", "unit": "% specific ^51 Cr release"}, {"measurement": "CTL activity (% specific ^51 Cr release)", "setting": "[1]; [9]", "result": "7 ± 2", "unit": "% specific ^51 Cr release"}, {"measurement": "CTL activity (% specific ^51 Cr release)", "setting": "[1]; [10]", "result": "10 ± 2", "unit": "% specific ^51 Cr release"}, {"measurement": "CTL activity (% specific ^51 Cr release)", "setting": "[1]; [11]", "result": "34 ± 10", "unit": "% specific ^51 Cr release"}]}, {"molecule": "C=C1/C(=C\\C=C2/CCC[C@]3(C)[C@@H]([C@H](C)C=CC[C@](C)(O)CO)CC[C@@H]23)C[C@@H](O)C[C@@H]1O", "note": "[1α,25S,26-(OH)3 --Δ^22 -D3, 1α,25S,26-Trihydroxy-Δ^22-cholecalciferol]", "values": [{"measurement": "inhibition at 10 µM", "setting": "[1]; [3]", "result": 63, "unit": "%"}, {"measurement": "inhibition at 1 µM", "setting": "[1]; [4]", "result": 70, "unit": "%"}, {"measurement": "inhibition at 1 µM", "setting": "[1]; [5]", "result": 49, "unit": "%"}, {"measurement": "inhibition at 0.1 µM", "setting": "[1]; [6]", "result": 97, "unit": "%"}, {"measurement": "CTL activity (% specific ^51 Cr release)", "setting": "[1]; [3]", "result": "16 ± 4", "unit": "% specific ^51 Cr release"}, {"measurement": "CTL activity (% specific ^51 Cr release)", "setting": "[1]; [4]", "result": "13 ± 8", "unit": "% specific ^51 Cr release"}, {"measurement": "CTL activity (% specific ^51 Cr release)", "setting": "[1]; [5]", "result": "19 ± 4", "unit": "% specific ^51 Cr release"}, {"measurement": "CTL activity (% specific ^51 Cr release)", "setting": "[1]; [6]", "result": "1 ± 4", "unit": "% specific ^51 Cr release"}]}]}
